From patent publication US6852741B2, “Compositions and methods for treatment of neurological disorders” (University of Florida, priority 2001, dated 2005)

Experiments:
[1] = target: T1, α3β4 nicotinic acetylcholine receptor (Rattus norvegicus, UniProt P04757+P12392); assay: Two-electrode voltage clamp of Xenopus oocytes expressing wild-type α3β4 receptors; type: cell-based; conditions: for Protection from residual inhibition produced by 100 μM DMXB: pre-treatment and co-application, 100 μM ACh control after 5 minute wash
T1 construct: expressed in transfected cells; host or cells: Xenopus laevis oocytes injected with subunit cRNAs
Description: (§1) Preparation of RNA. After linearization and purification of cloned cDNAs, RNA transcripts were prepared in vitro using the appropriate mMessage mMachine kit from AMBION Inc. (Austin, Tex.).
(§2) Expression in Xenopus oocytes. Mature (>9 cm) female Xenopus laevis African toads (NASCO, Ft. Atkinson, Wis.) were used as a source of oocytes. Prior to surgery, frogs were anesthetized by placing the animal in a 1.5 g/L solution of MS222 (3-aminobenzoic acid ethyl ester). Eggs were removed from an incision made in the abdomen. […] Subsequently, stage 5 oocytes were isolated and injected with 50 nl (5-20 ng) each of a mixture of the appropriate subunit cRNAs following harvest. Recordings were made 1 to 7 days after injection depending on the cRNAs being tested.
(§3) Electrophysiology. […] Data were acquired using Labview software (NATIONAL INSTRUMENTS) or pClamp8 (AXON INSTRUMENTS) and filtered at a rate of 6 Hz. […] A Mariotte flask filled with Ringer's solution was used to maintain a constant hydrostatic pressure for drug deliveries and washes. Drugs were diluted in perfusion solution and loaded into a 2 ml loop at the terminus of the perfusion line. A bypass of the drug-loading loop allowed bath solution to flow continuously while the drug loop was loaded, and then drug application was synchronized with data acquisition by using a 2-way electronic valve. The rate of bath solution exchange and all drug applications was 6 ml/min. Current electrodes were filled with a solution containing 250 mM CsCl, 250 mM CsF and 100 mM EGTA and had resistances of 0.5-2 MΩ. Voltage electrodes were filled with 3 M KCl and had resistances of 1-3 MΩ.
(§4) Experimental protocols and data analysis. Current responses to drug application were studied under two-electrode voltage clamp at a holding potential of −50 mV unless otherwise noted. Holding currents immediately prior to agonist application were subtracted from measurements of the peak response to agonist.
(§5) The ratio of C2/C1 is referred to as the recovery response (FIGS. 2B, 3B and 3D). Measurements of C2/C1 that were <0.75 were taken to indicate that the experimental drug application produced some form of residual inhibition. An oocyte was not used for further experimental drug applications when the measurements of C2/C 1 became less than 0.75.
(§6) Means and standard errors (SEM) were calculated from the normalized responses of at least four oocytes for each experimental concentration. For concentration-response relations (FIGS. 2 & 3), data were plotted using Kaleidagraph 3.0.2 (ABELBECK SOFTWARE; Reading, Pa.), and curves were generated from the Hill equation. [formula]
(§7) In Formula I, Imax denotes the maximal response for a particular agonist/subunit combination, and n represents the Hill coefficient. Imax, n, and the EC50 were all unconstrained for the fitting procedures.
The values for the C2/C1 ratios were plotted as functions of the experimental agonist concentrations applied between the C2 and C1 control responses. The data were then fit to the Hill equation with n constrained to equal −1 for the calculation of IC50 values. Determination of significant differences between experimental and control groups (FIGS. 4A-4B and 5A-5D) was made by t-test (unpaired two-tailed).

[2] = target: T2, α3β4(6′F10′T) nicotinic acetylcholine receptor (Rattus norvegicus, UniProt P04757+P12392, A272T/S268F); assay: Two-electrode voltage clamp of Xenopus oocytes expressing mutant α3β4(6′F10′T) receptors; type: cell-based; conditions: for Effect of hyperpolarized holding potential on residual inhibition: −100 mV versus −50 mV; for Residual inhibition of mutant compared with wild-type receptor: after 5 minute wash
T2 construct: expressed in transfected cells; host or cells: Xenopus laevis oocytes injected with subunit cRNAs; mutant made by QuikChange site-directed mutagenesis
Description: cDNA clones. […] The sequences of the TM2 domains of the relevant subunits are shown below.
Construction of site-directed mutants. Site-directed mutagenesis was conducted with […] kits ([…], LaJolla, Calif.). In brief, two complimentary oligonucleotides were synthesized which contain the desired mutation flanked by 10-15 bases of unmodified nucleotide sequence. Using a thermal cycler, Pfu DNA polymerase extended the sequence around the whole vector, generating a plasmid with staggered nicks. […] After 12-16 cycles, the product was treated with Dpn I, which digested the methylated parent DNA into numerous small pieces. The product was then transformed into E. coli cells, which repaired the nicks. Mutations were confirmed by DNA sequencing.
as §1, §2, §3, §4, §5, §6, §7
The values for the C2/C1 ratios were plotted as functions of the experimental agonist concentrations applied between the C2 and C1 control responses. The data were then fit to the Hill equation with n constrained to equal −1 for the calculation of IC50 values.

[3] = Hill fit of peak currents, holding potential −50 mV

T1 sequence (P04757 26-499): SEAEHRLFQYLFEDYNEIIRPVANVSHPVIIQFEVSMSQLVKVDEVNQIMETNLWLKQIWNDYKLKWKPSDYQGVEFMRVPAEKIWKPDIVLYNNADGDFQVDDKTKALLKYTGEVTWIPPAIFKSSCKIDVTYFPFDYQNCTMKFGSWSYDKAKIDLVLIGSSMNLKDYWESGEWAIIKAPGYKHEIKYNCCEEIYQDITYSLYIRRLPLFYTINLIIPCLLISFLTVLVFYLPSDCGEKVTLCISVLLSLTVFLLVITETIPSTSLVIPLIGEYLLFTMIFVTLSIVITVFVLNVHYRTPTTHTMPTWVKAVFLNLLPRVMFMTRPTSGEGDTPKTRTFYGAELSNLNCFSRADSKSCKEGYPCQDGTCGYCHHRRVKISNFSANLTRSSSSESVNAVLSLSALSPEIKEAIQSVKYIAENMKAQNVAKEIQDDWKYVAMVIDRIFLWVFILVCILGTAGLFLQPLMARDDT
T1 sequence (P12392 21-495): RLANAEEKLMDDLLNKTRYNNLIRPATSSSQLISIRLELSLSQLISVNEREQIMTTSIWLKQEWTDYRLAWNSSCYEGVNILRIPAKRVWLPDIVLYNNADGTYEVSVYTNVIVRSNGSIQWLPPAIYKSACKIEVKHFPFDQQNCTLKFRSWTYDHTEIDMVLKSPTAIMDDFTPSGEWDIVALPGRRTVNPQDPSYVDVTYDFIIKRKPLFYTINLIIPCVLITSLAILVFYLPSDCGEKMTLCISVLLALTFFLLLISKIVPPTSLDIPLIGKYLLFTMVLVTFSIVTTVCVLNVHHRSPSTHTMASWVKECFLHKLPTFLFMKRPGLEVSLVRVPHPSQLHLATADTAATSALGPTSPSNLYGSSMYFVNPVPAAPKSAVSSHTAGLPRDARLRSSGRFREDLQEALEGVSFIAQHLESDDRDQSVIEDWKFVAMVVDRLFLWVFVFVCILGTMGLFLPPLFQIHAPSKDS
T2 sequence (P04757 26-499): as the sequence (P04757 26-499) above
T2 sequence (P12392 21-495 S268F/A272T): as the sequence (P12392 21-495) above, with S248F, A252T counted along it

CN1CCCC1c1cccnc1 (single isomer, unassigned; (-)) [Nicotine, (−)-Nicotine]
n (Hill coefficient) ([1]; Hill fit of peak currents): 1.2 ± 0.2 | n (Hill coefficient) ([2]; Hill fit of peak currents): 0.8 ± 0.3 | Persistence of residual inhibition ([2]; repeated applications, data not shown): up to an hour | Effect of hyperpolarized holding potential on residual inhibition [2]: enhanced

COc1ccc(/C=C2\CCCN=C2c2cccnc2)c(OC)c1 [DMXB, 3-[2,4-dimethoxybenzylidene]-anabaseine]
IC50 [1]: 121 ± 48 µM | Activation on co-application with 100 μM ACh, relative to ACh alone ([1]; 100 μM DMXB co-applied with 100 μM ACh): 4±0.2% | Effect of ACh co-application on DMXB-induced inhibition ([1]; DMXB co-applied with 100 μM ACh): not enhanced | Effect of hyperpolarized holding potential on residual inhibition ([1]; −100 mV versus −50 mV): enhanced | IC50 [2]: 23 ± 17 µM | Response to 100 μM ACh when co-applied with DMXB ([2]; 30 μM DMXB co-applied with 100 μM ACh): 13±2% | Effect of ACh co-application on DMXB-induced residual inhibition ([2]; 30 μM DMXB co-applied with ACh): large increase in the residual inhibition | Residual inhibition of mutant compared with wild-type receptor [2]: more inhibition after it was applied at 100 or 300 μM | Effect of hyperpolarized holding potential on residual inhibition [2]: enhanced

CC[N+](CC)(CC)CC(=O)Nc1c(C)cccc1C [QX-314, 2-(triethylamino)-N-(2,6-dimethylphenyl)-acetamide]
Protection from residual inhibition produced by 100 μM DMXB [1]: neither of these agents provided any protection

CNCC/C=C/c1cccnc1 [TC-2403, (E)-N-methyl-4-(3-pyridinyl)-3-butene-1-amine]
n (Hill coefficient) ([1]; Hill fit of peak currents): 2.1 ± 0.2 | Max response (relative to ACh Maximum) [1, 3]: 0.09 ± 0.01 | EC50 ([1]; activation of peak currents): 347 ± 12 µM | Protection from residual inhibition produced by 100 μM DMXB [1]: significant (p<0.05) reduction in the residual inhibition | n (Hill coefficient) ([2]; Hill fit of peak currents): 2.1 ± 0.2 | Max response (relative to ACh Maximum) [2, 3]: 0.38 ± 0.01 | EC50 ([2]; activation of peak currents): 111 ± 5 µM | Control ACh response after application, relative to pre-application control values ([2]; after 1 mM TC-2403, 5 minute wash): 70±6% | Residual inhibition of mutant compared with wild-type receptor [2]: no significant increase in residual inhibition at concentrations less than 1 mM | Protection from residual inhibition produced by 100 μM DMXB ([2]; pre-treatment and co-application, p<0.01 for TC-2403): significant protection | Protection from residual inhibition produced by 300 μM nicotine ([2]; pre-treatment and co-application, p<0.05 for TC-2403): significant protection

CCCCNc1ccc(C(=O)OCCN(C)C)cc1 [tetracaine]
Protection from residual inhibition produced by 100 μM DMXB [1]: neither of these agents provided any protection
